The supplement of paper PMC12613149

How the values were obtained:
[1] = collision cross section (TIMS, N2 drift gas) of the primary ion; higher = larger gas-phase ion size
[2] = reversed-phase LC retention time (C18, 15 min MeOH gradient); higher = more hydrophobic / later elution
[3] = ionization mode: ESI+, ion species: [M+H]+
[4] = ionization mode: ESI-, ion species: [M-H]-

Row | collision cross section [1, 3] [Å²] | reversed-phase LC retention time [2, 3] [min] | collision cross section [1, 4] [Å²] | reversed-phase LC retention time [2, 4] [min] | Structure (SMILES)
1 | 168.14 | 14.1 | 171.91 | 10.1 | CC(=O)CC(c1ccccc1)c1c(O)c2ccccc2oc1=O (stereo not given) [Warfarin]
2 | 131.77 | 9.22 |  |  | Cc1cc(=O)oc2cc(N)ccc12 [7-Amino-4-methylcoumarin]
3 |  |  | 185.13 | 17.3 | CCCCCCCCCCCCc1ccccc1S(=O)(=O)O [Dodecylbenzenesulfonic acid]
4 | 140.79 | 7.22 | 140.22 | 8.55 | CCNc1nc(NCC)[nH]c(=O)n1 [Simazine 2-Hydroxy]
5 | 225.08 | 11.8 |  |  | CC1(C)CC(OC(=O)CCCCCCCCC(=O)OC2CC(C)(C)NC(C)(C)C2)CC(C)(C)N1 [Bis(2,2,6,6-tetramethyl-4-piperidyl)sebacate]
6 | 142.07 | 7.73 |  |  | CCC(C(N)=O)(C(N)=O)c1ccccc1 [Phenylethylmalonamide]
7 | 145.06 | 6.83 | 145.07 | 9.84 | Clc1cccc(Cl)c1NC1=NCCN1 [Clonidine]
8 |  |  | 241.7 | 11.7 | COc1cc(C2c3cc4c(cc3C(OC3OC5COC(C)OC5C(O)C3O)C3COC(=O)C23)OCO4)cc(OC)c1O (stereo not given) [Etoposide_2]
9 | 179.28 | 4.56 |  |  | CC(=O)Nc1c(I)c(NC(C)=O)c(I)c(C(=O)O)c1I [Diatrizoate]
10 |  |  | 124.87 | 6.78 | O=C(O)c1ccc(Cl)cc1Cl [2,4-Dichlorobenzoic acid]
11 |  |  | 182.24 | 14.3 | C#C[C@]1(O)CC[C@H]2[C@@H]3CCc4cc(O)ccc4[C@H]3CC[C@@]21C [17-alpha-Ethinylestradiol]
12 |  |  | 182.17 | 11.9 | C[C@]12C=CC(=O)C=C1CC[C@@H]1[C@@H]2[C@@H](O)C[C@@]2(C)[C@H]1CC[C@]2(O)C(=O)CO [Prednisolone]
13 | 145.3 | 12.6 |  |  | c1ccc2sc(N3CCOCC3)nc2c1 [2(4-morpholinyl)benzothiazole]
14 | 156.95 | 11.1 |  |  | Cc1cccc(C)c1N(Cn1cccn1)C(=O)CO [Metazachlor-2-hydroxy]

More lines, now with the values behind:

Row | Structure (SMILES) | collision cross section [1, 3] [Å²] | reversed-phase LC retention time [2, 3] [min] | collision cross section [1, 4] [Å²] | reversed-phase LC retention time [2, 4] [min]
15 | CCC(C)(C)c1cc(-n2nc3ccccc3n2)c(O)c(C(C)(C)CC)c1 [UV-328] | 196.56 | 20.1 |  | 
16 | O=C(NCCc1ncc(C(F)(F)F)cc1Cl)c1ccccc1C(F)(F)F [Fluopyram] | 177.5 | 14.7 | 179.2 | 15.2
17 | CNC(=O)CSP(=S)(OC)OC [Dimethoate] | 141.81 | 9.08 |  | 
18 | C[C@]12CC[C@@H]3c4ccc(O)cc4CC[C@H]3[C@@H]1CC[C@H]2O [17-alpha-Estradiol] |  |  | 173.91 | 14.5
19 | COP(=O)(OC)OC [Trimethylphosphate] | 116.51 | 6.15 |  | 
20 | O=S(=O)(O)C(F)(F)C(F)(F)C(F)(F)C(F)(F)C(F)(F)F [Perfluoropentanesulfonic acid] |  |  | 141.48 | 12.8
21 | COP(=O)(OC)OC=C(Cl)Cl [Dichlorvos] | 139.26 | 9.07 |  | 
22 | CCC(C)(CC)c1cc(NC(=O)c2c(OC)cccc2OC)on1 [Isoxaben] | 186.76 | 14.3 | 186.45 | 14.7
23 | Nc1ccc(Sc2ccc(N)cc2)cc1 [4,4'-Thiodianiline] | 164.43 | 9.19 |  | 
24 | Oc1ccccc1-c1ccccc1O [2,2'-Dihydroxybiphenyl] |  |  | 143.93 | 15.6
25 | N#Cc1nn(-c2c(Cl)cc(C(F)(F)F)cc2Cl)c(N)c1S(=O)(=O)C(F)(F)F [Fipronil sulfone] |  |  | 178.27 | 16.1
